# Assay results reported in paper PMC4001449, “Thienoquinolines as Novel Disruptors of the PKCε/RACK2 Protein–Protein Interaction” (Journal of Medicinal Chemistry, 2014).
# Legend:
# [1] = tested on: HeLa cells containing a doxycycline-inducible constitutively active PKCε; assay: Scratch migration assay; assay type: cell-based; details: 25 μM, 24 h, doxycycline 2 μg/mL
# Description: For cell migration and motility, a scratch migration assay described by Cha et al.[41] was employed. In a tissue culture dish, with logarithmically growing HeLa cells containing a doxycycline-inducible constitutively active PKCε, a migration gap of approximately 1 mm was created by introducing a “scratch” to the adherent layer of cultured cells using a sterile Gilson 200 μL pipet tip. The scratch was administered by hand with sufficient pressure to remove adherent cells from the polystyrene substrate but without causing physical damage to the polystyrene surface. The dish was washed with PBS to remove the cells and further incubated with 2 μg/mL doxycycline and 25 μM 8 for 24 h. Controls were left either untreated or were incubated with 2 μg/mL doxycycline and DMSO. […] Invasion of HeLa cells through a reconstituted basement membrane matrix was determined with a cell invasion assay kit from Chemicon (no. ECM550) as described by the manufacturer.
# MARCKS phosphorylation = MARCKS phosphorylation in HeLa cells (Western blot); assay type: cell-based; details: 50 μM for 30 min, 100 nM TPA last 10 min
# Description: Figure 6 Compound 8 inhibits MARCKS phosphorylation, cell proliferation, and invasion following treatment with 8. (A) HeLa cells were starved for 16 h in medium without fetal calf serum. Subsequently, they were treated with 50 μM solution of compound 8 for 30 min and 100 nM TPA for the last 10 min. An amount of 150 μg of protein from lysed cells was loaded onto SDS 8–16% gels. Tubulin was used as loading control. Below a representative blot, a bar graph corresponding to quantitative scans of three independent experiments (±SD) is shown. (B) Cell proliferation following treatment of HeLa and PC-3 cells with 8. The mean values (±SD) of three independent experiments, in which three samples were taken within each experiment, are shown. (C) Invasion of cells through a membrane. Cell invasion was determined as described in Experimental Section. In HeLa cells with a doxycycline-inducible PKCε the expression of PKCε was induced with doxycycline (control + Dox). The mean of three experiments (±SD) is shown: (∗) p = 0.03. The data are normalized to the control (100%). Therefore, the standard deviation for the control is 0.
# For PKCε translocation PC-3 cells were starved for 16 h, treated with 8 for 30 min, stimulated with 50 nM TPA for 5 min, lysed, and fractionated with a CNMCS/CNM compartmental protein extraction kit (BioChain Institute, Newark, CA). […]
# [2] = tested on: VEGF-induced angiogenesis in chicken egg; assay: Chicken egg angiogenesis assay; assay type: in vivo; details: Figure 8
# Description: Eggs from hen were incubated at 37 °C for 3 days, opened, and incubated for further 7 days. After further incubation for 5 days, angiogenesis was observed by microscope.
# PIM3 = PIM3 (Homo sapiens, UniProt Q86V86); assay: Kinase profiling (Dundee), PIM3; assay type: biochemical; details: 25 μM solution
# NUAK1 = molecular target: T1, NUAK1 (Homo sapiens, UniProt O60285); assay: Kinase profiling (Dundee), NUAK1; assay type: biochemical; details: 25 μM solution
# T1 sequence (O60285 1-661): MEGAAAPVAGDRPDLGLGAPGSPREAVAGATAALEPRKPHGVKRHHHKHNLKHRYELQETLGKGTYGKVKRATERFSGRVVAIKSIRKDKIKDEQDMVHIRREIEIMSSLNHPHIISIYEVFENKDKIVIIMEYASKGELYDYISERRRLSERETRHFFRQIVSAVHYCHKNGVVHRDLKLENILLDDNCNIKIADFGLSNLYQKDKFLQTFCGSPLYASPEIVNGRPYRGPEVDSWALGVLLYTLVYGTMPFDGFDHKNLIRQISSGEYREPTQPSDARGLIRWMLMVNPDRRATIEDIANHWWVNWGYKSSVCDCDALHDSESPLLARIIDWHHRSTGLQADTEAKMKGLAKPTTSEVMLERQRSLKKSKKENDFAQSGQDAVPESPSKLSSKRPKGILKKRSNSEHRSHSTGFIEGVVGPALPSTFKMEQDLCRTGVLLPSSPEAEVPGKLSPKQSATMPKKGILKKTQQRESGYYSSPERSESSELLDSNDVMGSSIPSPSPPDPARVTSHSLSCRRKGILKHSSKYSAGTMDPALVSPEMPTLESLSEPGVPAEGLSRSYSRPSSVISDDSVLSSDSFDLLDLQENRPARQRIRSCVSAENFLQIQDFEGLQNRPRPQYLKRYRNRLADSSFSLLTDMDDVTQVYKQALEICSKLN
# BTK = BTK (Homo sapiens, UniProt Q06187); assay: Kinase profiling (Dundee), BTK; assay type: biochemical; details: 25 μM solution
# Sequence of BTK (Q06187 whole entry, species assumed): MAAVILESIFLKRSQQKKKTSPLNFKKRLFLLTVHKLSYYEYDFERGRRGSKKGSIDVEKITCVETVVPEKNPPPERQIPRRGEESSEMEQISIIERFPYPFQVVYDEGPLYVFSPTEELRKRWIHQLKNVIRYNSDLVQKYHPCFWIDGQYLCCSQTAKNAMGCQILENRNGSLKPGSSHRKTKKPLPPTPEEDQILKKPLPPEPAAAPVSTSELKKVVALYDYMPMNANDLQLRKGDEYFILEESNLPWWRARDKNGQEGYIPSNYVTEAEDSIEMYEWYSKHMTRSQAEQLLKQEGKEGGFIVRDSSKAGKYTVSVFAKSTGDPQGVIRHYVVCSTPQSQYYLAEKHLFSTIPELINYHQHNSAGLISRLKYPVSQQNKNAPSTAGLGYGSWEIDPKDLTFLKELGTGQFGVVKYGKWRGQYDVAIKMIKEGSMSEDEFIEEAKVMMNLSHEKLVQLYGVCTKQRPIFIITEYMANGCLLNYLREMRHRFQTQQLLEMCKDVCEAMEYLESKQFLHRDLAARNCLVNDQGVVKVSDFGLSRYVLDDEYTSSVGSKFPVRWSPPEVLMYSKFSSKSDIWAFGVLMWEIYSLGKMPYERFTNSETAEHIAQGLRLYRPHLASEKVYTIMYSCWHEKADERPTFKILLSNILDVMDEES
# [3] = tested on: PC-3 prostate adenocarcinoma cells; assay: Cell proliferation (SRB assay), PC-3; assay type: cell-based, human; details: PC-3, 50 μM, 72 h
# Description: (§1) HeLa cells containing a tetracycline/doxycycline-inducible constitutively active PKCε were described previously.[26] A PathDetect HeLa HLR cell line was obtained from Agilent, Technologies, Wokingham, U.K. PC-3 prostate adenocarcinoma cells were obtained from Dr. Helmut Klocker, Department of Urology, Innsbruck Medical University. For cell proliferation HeLa HLR and PC-3 cells were seeded at ∼10 000 cells per well in 96-well plates. After 4 h various concentrations of 8 were added and left for 72 h. Cell proliferation was determined by the SRB assay.[35]
# HeLa-HLR cells = assay: Cell proliferation (SRB assay), HeLa-HLR; assay type: cell-based; details: 50 μM, 72 h
# Description: as §1
# PKCε = PKCε translocation, cell fractionation and Western blotting in PC-3 cells; assay type: cell-based, human; details: Figure 3
# Description: For PKCε translocation PC-3 cells were starved for 16 h, treated with 8 for 30 min, stimulated with 50 nM TPA for 5 min, lysed, and fractionated with a CNMCS/CNM compartmental protein extraction kit (BioChain Institute, Newark, CA). Western blotting was performed by a standard procedure as described by Garczarczyk et al.[27],[40] Cytosolic and membrane fractions were loaded onto SDS gels and transferred to an Immobilon membrane (Millipore, Billerica, MA). The membranes were incubated with rabbit polyclonal IgG antibodies for detection of PKCε (Santa Cruz Biotechnology; dilution 1:2000), for PKCε phosphoSer^729 (Millipore; dilution 1:1000), for PKCδ (Santa Cruz Biotechnology; dilution 1:1000), and for MARCKS phosphoSer152/156 (Cell Signaling Technology, Danvers, MA; dilution 1:1000). For the loading control tubulin (Santa Cruz Biotechnology; dilution 1:1000), and as marker for the membrane fraction, an IGFI-βR rabbit polyclonal IgG antibody (Santa Cruz; dilution 1:1000) and, as secondary antibodies, peroxidase-conjugated AffiniPure goat anti-rabbit IgG (Jackson ImmunoResearch Laboratories, West Grove, PA; dilution 1:20000) were used. GAPDH (Chemicon, Millipore, Billerica, MA; dilution 1:10000) was used as loading control for the cytosolic fraction. […]
structure (smiles),measurement,setting,value
"CC(=O)c1cccc(NC(=O)c2sc3nc4cc5c(cc4cc3c2N)OCCO5)c1 [Compound 8, N-(3-acetylphenyl)-9-amino-2,3-dihydro-1,4-dioxino[2,3-g]thieno[2,3-b]quinoline-8-carboxamide]",PKCε-induced migration of cells into a gap,[1],inhibited
same,Phosphorylation of MARCKS,MARCKS phosphorylation,inhibited
same,Induction of angiogenesis by vascular endothelial growth factor,[2],inhibited
same,"PIM3 activity, % of control",PIM3,46 % of control
same,"NUAK1 activity, % of control",NUAK1,49 % of control
same,"BTK activity, % of control",BTK,42 % of control
same,Inhibition of cell proliferation,[3],did not show any inhibition
same,Inhibition of cell proliferation,HeLa-HLR cells,did not show any inhibition
same,Ser729-phosphorylated PKCε at the membrane,PKCε; TPA,did not reduce
same,Translocation of activated and phosphorylated PKCε to the membrane fraction,PKCε; TPA-induced,partially inhibits
